For two molecules, IC50 results are on record in patent US10968462B2, “Plants having increased tolerance to herbicides” (BASF AGRO B.V., priority 2013, dated 2021).

Assay type in all cases: biochemical, Amaranthus tuberculatum
In assay [1] the target is wild type and amino acid substituted PPO enzyme (PPO2) of SEQ ID NO: 2 (AMARE) (Amaranthus tuberculatus, UniProt Q0NZW9, R128A/L397D, form not given).
The target in assay [2] is wild type and amino acid substituted PPO enzyme (PPO2) of SEQ ID NO: 2 (AMARE) (Amaranthus tuberculatus, UniProt Q0NZW9, F204I/T208S, form not given).
The target in assay [3] is wild type and amino acid substituted PPO enzyme (PPO2) of SEQ ID NO: 2 (AMARE) (Amaranthus tuberculatus, UniProt Q0NZW9, F204I/F457M, form not given).
In assay [4] the target is wild type and amino acid substituted PPO enzyme (PPO2) of SEQ ID NO: 2 (AMARE).
Assay [5] addresses wild type and amino acid substituted PPO enzyme (PPO2) of SEQ ID NO: 2 (AMARE) (Amaranthus tuberculatus, UniProt Q0NZW9, R128L, form not given).

By IC50 is commonly meant the point on the concentration scale where inhibition reaches its midpoint. Higher therefore signals weaker potency in that assay. For `C#CCN1C(=O)C(F)(F)Oc2cc(F)c(-n3c(=O)n(C)c(=S)n(C)c3=O)cc21` [1,5-dimethyl-6-thioxo-3-(2,2,7-trifluoro-3-oxo-4-(prop-2-yny] [reference compound], the IC50 in assay [1] is 5.9 nM; in assay [2], 0.129 nM; in assay [3], 0.0752 nM; in assay [4], 246 nM.

Regarding `CC(C)N(C)S(=O)(=O)NC(=O)c1cc(-n2c(=O)cc(C(F)(F)F)n(C)c2=O)c(F)cc1Cl` [Saflufenacil, saflufenacil], the IC50 stood at 0.0589 nM in assay [2], 0.0189 nM in assay [3] and 222 nM in assay [5].
